Format in all cases: in vivo
The test system of series [1] is nutsedge (CYPES, Cyperus esculentus). Description: Postemergence greenhouse trial, herbicidal efficacy on nutsedge. Conditions: applied alone at 35 g/ha; for % visual injury, Obs, CYPES: rated after 20-22 d. The method, then: (§1) Seeds of the desired test plant species were planted in Sun Gro MetroMix® 306 planting mixture, which typically has a pH of 6.0 to 6.8 and an organic matter content of about 30 percent, in plastic pots with a surface area of 103.2 square centimeters (cm^2). When required to ensure good germination and healthy plants, a fungicide treatment and/or other chemical or physical treatment was applied. The plants were grown for 7-36 days (d) in a greenhouse with an approximate 14-hour (h) photoperiod which was maintained at about 23° C. during the day and 22° C. during the night. Nutrients and water were added on a regular basis and supplemental lighting was provided with overhead metal halide 1000-Watt lamps as necessary. The plants were employed for testing when they reached the second or third true leaf stage.
(§2) Weighed amounts of technical material were dissolved in a volume of 97:3 volume per volume (v/v) acetone/dimethyl sulfoxide (DMSO) to stock solutions. […] The concentrated stock solutions were diluted with an aqueous mixture of 1.5% v/v of Agri-dex crop oil concentrate to provide the appropriate application rates. Compound requirements are based upon a 12 milliliter (mL) application volume at a rate of 187 liters per hectare (L/ha). Stocks solutions of the safeners were prepared following the same procedure. Spray solutions of the safeners and experimental compound mixtures were prepared by adding the stock solutions to the appropriate amount of dilution solution to form a 12 mL spray solution in two-way combinations. Formulated compounds were applied to the plant material with an overhead Mandel track sprayer equipped with 8002E nozzles calibrated to deliver 187 L/ha over an application area of 0.503 square meters (m^2) at a spray height of 18 inches (43 centimeters (cm)) above average plant canopy. Control plants were sprayed in the same manner with the solvent blank. All herbicide application (component a) rates are in g ae/ha and all safener (component b) rates are in g ai/ha.
(§3) The treated plants and control plants were placed in a greenhouse as described above and watered by sub-irrigation to prevent wash-off of the test compounds. After 20-22 d, the condition of the test plants as compared with that of the control plants was determined visually and scored on a scale of 0 to 100 percent where 0 corresponds to no injury and 100 corresponds to complete kill. The condition of the test plants was compared with that of the control plants as determined visually and scored on a scale of 0 to 100 percent, where 0 corresponds to no injury and 100 corresponds to complete kill. Colby's equation was used to determine the herbicidal effects expected from the mixtures.

The test system of series [2] is velvetleaf (ABUTH, Abutilon theophrasti). Description: Postemergence greenhouse trial, herbicidal efficacy on velvetleaf. Conditions: post-emergence, 528 h, applied alone at 35 g/ha, postemergence. The protocol:
as §1, §2, §3

Series [3] deals with chickweed (STEME, Stellaria media). Description: Postemergence greenhouse trial, herbicidal efficacy on chickweed. The following applies: post-emergence, 528 h, applied alone at 35 g/ha, postemergence. The protocol: as §1, §2, §3
For series [4], the system named is winter rape (BRSNW, Brassica napus). Description: Postemergence greenhouse trial, herbicidal efficacy on winter rape. The following applies: post-emergence, 528 h, applied alone at 35 g/ha, postemergence. The protocol: as §1, §2, §3
Series [5] deals with lambsquarters (CHEAL, Chenopodium album). Description: Postemergence greenhouse trial, herbicidal efficacy on lambsquarters. The following applies: post-emergence, 528 h, applied alone at 35 g/ha, postemergence. The method, then:
as §1, §2, §3

For series [6], the system named is thistle (CIRAR, Cirsium arvense). Description: Postemergence greenhouse trial, herbicidal efficacy on thistle. The following applies: post-emergence, 528 h, applied alone at 35 g/ha, postemergence. The protocol: as §1, §2, §3
Series [7] relates to sorghum (SORVU, Sorghum bicolor). Description: Postemergence greenhouse trial, herbicidal efficacy on sorghum. Conditions: applied alone at 35 g/ha; for % visual injury, Obs, SORVU: rated after 20-22 d. The method, then:
as §1, §2, §3

Series [8] deals with wild buckwheat (POLCO, Polygonum convolvulus). Description: Postemergence greenhouse trial, herbicidal efficacy on wild buckwheat. The following applies: Fallopia convolvulus, post-emergence, 528 h, applied alone at 35 g/ha, postemergence. The method, then: as §1, §2, §3
In series [9] the test system is wheat (TRZAS), Triticum aestivum (spring wheat). Description: Postemergence greenhouse trial, crop injury (phytotoxicity/safening) on wheat. Conditions: applied alone at 35 g/ha, scored 20-22 d, 0 = no injury, 100 = complete kill. The protocol:
as §1, §2, §3
(§4) The safener fenchlorazole-ethyl was combined with compound 1, compound 2, compound 3, compound 4, compound 5, and compound 6, and applied to wheat (TRZAS), and the phytotoxicity of the herbicidal compositions was measured. In addition, the efficacy of the herbicidal composition on velvetleaf (ABUTH, Abutilon theophrasti), pigweed (AMARE, Amaranthus retroflexus), winter rape (BRSNW, Brassica napus), lambsquarters (CHEAL, Chenopodium album), thistle (CIRAR, Cirsium arvense), nutsedge (CYPES, Cyperus esculentus), poinsettia (EPHHL, Euphorbia heterophylla), wild buckwheat (POLCO, Polygonum convolvulus), giant foxtail (SETFA, Setaria faberi), sorghum (SORVU, Sorghum bicolor), chickweed (STEME, Stellaria media), and wild pansy (VIOTR, Viola tricolor) was evaluated.
The safener isoxadifen-ethyl was combined with compound 1, compound 2, compound 3, compound 4, compound 5, and compound 6, and applied to wheat (TRZAS), and the phytotoxicity of the herbicidal compositions was measured. […]

For series [10], the system named is pigweed (AMARE, Amaranthus retroflexus). Description: Postemergence greenhouse trial, herbicidal efficacy on pigweed. Conditions: post-emergence, 528 h, applied alone at 35 g/ha, postemergence. The method, then: as §1, §2, §3
The test system of series [11] is poinsettia (EPHHL, Euphorbia heterophylla). Description: Postemergence greenhouse trial, herbicidal efficacy on poinsettia. The following applies: applied alone at 35 g/ha, postemergence; for pest or weed control at 35 g/ha: Euphorbia heterophylla, post-emergence, 528 h, rated after 20-22 d, read-out: % visual injury, Obs, EPHHL. The method, then: as §1, §2, §3
Series [12] has as its system corn/maize (ZEAMX), Zea mays. Description: Postemergence greenhouse trial, crop injury (phytotoxicity/safening) on corn/maize. The following applies: applied alone at 35 g/ha, rated after 20-22 d. The protocol: as §1
as §2, with “All herbicide application (component a) rates are in g ae/ha and all safener (component b) rates are in g ai/ha.” left out
as §3, with “Colby's equation was used to determine the herbicidal effects expected from the mixtures.” left out
as §4, with “compound” for “compound 3, compound 4, compound”, “corn/maize (ZEAMX)” for “wheat (TRZAS),”, “bicolor), and” for “bicolor),”, “media)” for “media), and wild pansy (VIOTR, Viola tricolor)”
The safener mefenpyr-diethyl was combined with compound 1, compound 2, and compound 5, and applied to corn/maize (ZEAMX) and the phytotoxicity of the herbicidal compositions were measured. […]

Series [13] concerns wild pansy (VIOTR, Viola tricolor). Description: Postemergence greenhouse trial, herbicidal efficacy on wild pansy. Conditions: applied alone at 35 g/ha, postemergence; for pest or weed control at 35 g/ha: Viola tricolor, post-emergence, 528 h, scored 20-22 d, read-out: Obs, % visual injury, VIOTR. The protocol: as §1, §2, §3
[14] abbreviates: rated after 20-22 d, read-out: % visual injury, Obs, ABUTH.
Setting [15] is: scored 20-22 d, read-out: Obs, % visual injury, ABUTH.
Setting [16] is: rated after 20-22 d, read-out: % visual injury, Obs, STEME.
Where [17] appears, read: scored 20-22 d, read-out: Obs, % visual injury, STEME.
The mark [18] stands for this setting: rated after 20-22 d, read-out: % visual injury, Obs, BRSNW.
Where [19] appears, read: scored 20-22 d, read-out: Obs, % visual injury, BRSNW.
Setting [20] is: rated after 20-22 d, read-out: % visual injury, Obs, CHEAL.
The mark [21] stands for this setting: scored 20-22 d, read-out: Obs, % visual injury, CHEAL.
[22] abbreviates: rated after 20-22 d, read-out: % visual injury, Obs, CIRAR.
Where [23] appears, read: scored 20-22 d, read-out: Obs, % visual injury, CIRAR.
Where [24] appears, read: rated after 20-22 d, read-out: % visual injury, Obs, POLCO.
The mark [25] stands for this setting: rated after 20-22 d, read-out: % visual injury, Obs, AMARE.
The mark [26] stands for this setting: scored 20-22 d, read-out: Obs, % visual injury, AMARE.

Read-outs that look alike come from different tables or passages of the source.

`COC(=O)c1nc(-c2ccc3ccn(C(=O)C(C)C)c3c2F)c(F)c(N)c1Cl` [compound 4]: in series [1], the “% visual injury, Obs, CYPES” value came out at 0%. Moreover, in [1] (scored 20-22 d), the “Obs, % visual injury, CYPES” value worked out at 0%. The pest or weed control at 35 g/ha in series [2] (setting [14]) was 80%; in series [2] (setting [15]) it was 80%; in series [3] (setting [16]) it was 93%; in series [3] (setting [17]), 93%; in [5] (setting [20]), 97%; in series [5] (setting [21]) it was 97%. For the same molecule, the pest or weed control at 35 g/ha in [6] (setting [22]) amounted to 75%; in series [6] (setting [23]), 75%; in [8] (setting [24]), 100%; in series [8] (scored 20-22 d, read-out: Obs, % visual injury, POLCO) it was 100%; in series [10] (setting [25]) it was 100%; in series [10] (setting [26]), 100%. For the same molecule, the pest or weed control at 35 g/ha in series [11] worked out at 100%; in series [13], 60%. Also, the plant injury at 35 g/ha in series [4] (setting [18]) and in series [4] (setting [19]) was 97% throughout. In addition, in series [7], the “% visual injury, Obs, SORVU” value was 80%. Besides, in series [9], the “Obs, % visual injury, TRZAS” value was 40%. Besides, the “Obs, % visual injury, EPHHL” value in series [11] (scored 20-22 d) turned out to be 100%. Further, the “% visual injury, Obs, ZEAMX” value in series [12] is 35%.

On to `COC(=O)c1nc(-c2ccc3ccn(C(=O)C(C)(C)C)c3c2F)c(F)c(N)c1Cl` [compound 5], for which the “% visual injury, Obs, CYPES” value in series [1] is 0%. Moreover, the pest or weed control at 35 g/ha in series [2] (setting [14]) came to 80%; in series [2] (setting [15]), 80%; in series [3] (setting [16]) it was 85%; in [3] (setting [17]) it was 85%; in series [5] (setting [20]), 100%; in series [5] (setting [21]) it was 100%. In addition, the pest or weed control at 35 g/ha came out at 80% in [6] (setting [22]); 80% in [6] (setting [23]); 100% in [8] (setting [24]); 100% in series [10] (setting [25]); 100% in series [10] (setting [26]); 100% in series [11]. For the same molecule, the pest or weed control at 35 g/ha in series [13] was 40%. The plant injury at 35 g/ha in [4] (setting [18]) and in [4] (setting [19]) was 97% throughout. For the same molecule, the “% visual injury, Obs, SORVU” value in series [7] is recorded as 60%. Further, the “Obs, % visual injury, SORVU” value in series [7] (scored 20-22 d) was found to be 60%. Moreover, the “Obs, % visual injury, TRZAS” value in series [9] was determined as 45%. The “% visual injury, Obs, ZEAMX” value in series [12] is recorded as 35%. Also, the “% visual injury, Obs, VIOTR” value in series [13] (rated after 20-22 d) was determined as 40%.

The values are drawn from patent publication US20160135455A1, “SAFENED HERBICIDAL COMPOSITIONS COMPRISING PYRIDINE CARBOXYLIC ACIDS” (Dow AgroSciences LLC, priority 2014, published 2016).
